How the values were obtained:
[1] = molecular target: Vascular endothelial growth factor receptor 2 (Homo sapiens, UniProt P35968); assay: Inhibition of KDR
[2] = molecular target: Serine/threonine-protein kinase pim-1 (Homo sapiens, UniProt P11309); assay: Inhibition of Pim1
[3] = molecular target: Rho-associated protein kinase 2 (Homo sapiens, UniProt O75116); assay: Inhibition of Rock2
[4] = molecular target: Glycogen synthase kinase-3 beta (Homo sapiens, UniProt P49841); assay: Inhibition of GSK3-beta
Chain of Glycogen synthase kinase-3 beta (P49841 whole entry): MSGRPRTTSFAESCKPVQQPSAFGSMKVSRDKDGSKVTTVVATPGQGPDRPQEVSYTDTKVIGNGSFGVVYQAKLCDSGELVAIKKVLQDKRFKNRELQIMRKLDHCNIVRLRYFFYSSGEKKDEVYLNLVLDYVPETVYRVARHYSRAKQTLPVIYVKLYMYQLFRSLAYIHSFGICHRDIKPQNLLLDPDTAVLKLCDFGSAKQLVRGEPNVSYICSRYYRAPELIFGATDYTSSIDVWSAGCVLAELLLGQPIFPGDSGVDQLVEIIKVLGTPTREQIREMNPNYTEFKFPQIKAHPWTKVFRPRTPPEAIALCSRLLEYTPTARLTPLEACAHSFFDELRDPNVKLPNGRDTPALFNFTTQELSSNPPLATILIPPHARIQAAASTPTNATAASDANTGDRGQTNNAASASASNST

[5] = molecular target: Serine/threonine-protein kinase PAK 4 (Homo sapiens, UniProt O96013); assay: Inhibition of Pak4
Chain of Serine/threonine-protein kinase PAK 4 (O96013 whole entry): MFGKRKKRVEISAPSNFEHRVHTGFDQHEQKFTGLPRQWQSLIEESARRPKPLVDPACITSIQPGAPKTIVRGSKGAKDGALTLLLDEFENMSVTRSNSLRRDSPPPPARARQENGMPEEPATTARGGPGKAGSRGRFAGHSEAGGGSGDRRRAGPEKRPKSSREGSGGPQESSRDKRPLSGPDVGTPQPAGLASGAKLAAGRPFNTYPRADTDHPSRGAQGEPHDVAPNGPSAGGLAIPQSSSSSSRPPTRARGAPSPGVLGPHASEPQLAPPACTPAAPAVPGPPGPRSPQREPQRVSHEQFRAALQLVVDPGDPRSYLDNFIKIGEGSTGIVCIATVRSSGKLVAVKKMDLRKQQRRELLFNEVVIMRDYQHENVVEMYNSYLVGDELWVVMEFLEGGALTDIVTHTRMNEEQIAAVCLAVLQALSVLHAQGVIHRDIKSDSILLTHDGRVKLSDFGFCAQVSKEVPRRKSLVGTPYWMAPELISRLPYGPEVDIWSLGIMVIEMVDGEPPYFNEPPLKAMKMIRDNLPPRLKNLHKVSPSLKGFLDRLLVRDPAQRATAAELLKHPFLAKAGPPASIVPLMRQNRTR

[6] = molecular target: Epidermal growth factor receptor (Homo sapiens, UniProt P00533); assay: Inhibition of EGFR
[7] = molecular target: Tyrosine-protein kinase JAK2 (Homo sapiens, UniProt O60674); assay: Inhibition of JAK2

Chain of Rho-associated protein kinase 2 (O75116 whole entry): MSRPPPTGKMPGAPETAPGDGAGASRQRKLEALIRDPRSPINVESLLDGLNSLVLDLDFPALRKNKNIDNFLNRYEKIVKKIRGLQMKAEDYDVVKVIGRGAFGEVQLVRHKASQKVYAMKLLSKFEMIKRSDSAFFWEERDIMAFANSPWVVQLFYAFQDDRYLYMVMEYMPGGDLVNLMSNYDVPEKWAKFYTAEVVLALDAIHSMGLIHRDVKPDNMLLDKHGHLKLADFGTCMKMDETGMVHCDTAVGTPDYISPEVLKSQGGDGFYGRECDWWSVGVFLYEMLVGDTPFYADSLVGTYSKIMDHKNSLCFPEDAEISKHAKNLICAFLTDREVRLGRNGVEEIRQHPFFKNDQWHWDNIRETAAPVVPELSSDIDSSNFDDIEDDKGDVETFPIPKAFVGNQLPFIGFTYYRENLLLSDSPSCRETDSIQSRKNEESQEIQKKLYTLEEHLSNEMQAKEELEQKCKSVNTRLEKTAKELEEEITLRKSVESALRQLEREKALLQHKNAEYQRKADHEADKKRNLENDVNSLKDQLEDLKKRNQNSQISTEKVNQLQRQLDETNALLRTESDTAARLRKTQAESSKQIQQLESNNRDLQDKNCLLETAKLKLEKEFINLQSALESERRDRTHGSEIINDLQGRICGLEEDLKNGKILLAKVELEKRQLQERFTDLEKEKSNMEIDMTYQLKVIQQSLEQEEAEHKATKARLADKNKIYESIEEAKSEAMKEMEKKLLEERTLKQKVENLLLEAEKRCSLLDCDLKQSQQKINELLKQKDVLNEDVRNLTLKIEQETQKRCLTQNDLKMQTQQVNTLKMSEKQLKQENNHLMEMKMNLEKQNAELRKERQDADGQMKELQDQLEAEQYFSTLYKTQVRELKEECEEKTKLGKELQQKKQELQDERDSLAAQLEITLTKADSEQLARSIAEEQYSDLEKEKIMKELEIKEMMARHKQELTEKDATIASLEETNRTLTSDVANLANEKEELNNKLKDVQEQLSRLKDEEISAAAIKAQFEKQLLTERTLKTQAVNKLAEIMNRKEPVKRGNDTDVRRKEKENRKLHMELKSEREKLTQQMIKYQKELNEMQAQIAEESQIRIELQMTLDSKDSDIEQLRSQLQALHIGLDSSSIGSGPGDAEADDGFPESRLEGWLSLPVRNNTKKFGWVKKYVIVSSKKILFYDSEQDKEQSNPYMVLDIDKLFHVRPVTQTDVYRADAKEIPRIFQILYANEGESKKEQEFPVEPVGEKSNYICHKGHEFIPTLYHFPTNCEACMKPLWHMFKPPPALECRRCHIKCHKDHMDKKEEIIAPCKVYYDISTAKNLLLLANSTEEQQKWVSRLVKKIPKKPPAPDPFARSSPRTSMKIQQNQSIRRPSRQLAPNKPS
Chain of Serine/threonine-protein kinase pim-1 (P11309 whole entry): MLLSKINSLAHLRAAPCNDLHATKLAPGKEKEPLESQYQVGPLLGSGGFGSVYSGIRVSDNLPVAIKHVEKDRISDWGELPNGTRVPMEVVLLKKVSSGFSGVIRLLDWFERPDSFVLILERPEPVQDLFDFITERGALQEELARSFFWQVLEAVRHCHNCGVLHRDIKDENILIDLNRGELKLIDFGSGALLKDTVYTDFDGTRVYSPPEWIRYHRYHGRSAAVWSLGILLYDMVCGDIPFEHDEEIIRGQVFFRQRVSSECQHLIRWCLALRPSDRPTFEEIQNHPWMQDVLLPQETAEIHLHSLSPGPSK
Chain of Vascular endothelial growth factor receptor 2 (P35968 whole entry): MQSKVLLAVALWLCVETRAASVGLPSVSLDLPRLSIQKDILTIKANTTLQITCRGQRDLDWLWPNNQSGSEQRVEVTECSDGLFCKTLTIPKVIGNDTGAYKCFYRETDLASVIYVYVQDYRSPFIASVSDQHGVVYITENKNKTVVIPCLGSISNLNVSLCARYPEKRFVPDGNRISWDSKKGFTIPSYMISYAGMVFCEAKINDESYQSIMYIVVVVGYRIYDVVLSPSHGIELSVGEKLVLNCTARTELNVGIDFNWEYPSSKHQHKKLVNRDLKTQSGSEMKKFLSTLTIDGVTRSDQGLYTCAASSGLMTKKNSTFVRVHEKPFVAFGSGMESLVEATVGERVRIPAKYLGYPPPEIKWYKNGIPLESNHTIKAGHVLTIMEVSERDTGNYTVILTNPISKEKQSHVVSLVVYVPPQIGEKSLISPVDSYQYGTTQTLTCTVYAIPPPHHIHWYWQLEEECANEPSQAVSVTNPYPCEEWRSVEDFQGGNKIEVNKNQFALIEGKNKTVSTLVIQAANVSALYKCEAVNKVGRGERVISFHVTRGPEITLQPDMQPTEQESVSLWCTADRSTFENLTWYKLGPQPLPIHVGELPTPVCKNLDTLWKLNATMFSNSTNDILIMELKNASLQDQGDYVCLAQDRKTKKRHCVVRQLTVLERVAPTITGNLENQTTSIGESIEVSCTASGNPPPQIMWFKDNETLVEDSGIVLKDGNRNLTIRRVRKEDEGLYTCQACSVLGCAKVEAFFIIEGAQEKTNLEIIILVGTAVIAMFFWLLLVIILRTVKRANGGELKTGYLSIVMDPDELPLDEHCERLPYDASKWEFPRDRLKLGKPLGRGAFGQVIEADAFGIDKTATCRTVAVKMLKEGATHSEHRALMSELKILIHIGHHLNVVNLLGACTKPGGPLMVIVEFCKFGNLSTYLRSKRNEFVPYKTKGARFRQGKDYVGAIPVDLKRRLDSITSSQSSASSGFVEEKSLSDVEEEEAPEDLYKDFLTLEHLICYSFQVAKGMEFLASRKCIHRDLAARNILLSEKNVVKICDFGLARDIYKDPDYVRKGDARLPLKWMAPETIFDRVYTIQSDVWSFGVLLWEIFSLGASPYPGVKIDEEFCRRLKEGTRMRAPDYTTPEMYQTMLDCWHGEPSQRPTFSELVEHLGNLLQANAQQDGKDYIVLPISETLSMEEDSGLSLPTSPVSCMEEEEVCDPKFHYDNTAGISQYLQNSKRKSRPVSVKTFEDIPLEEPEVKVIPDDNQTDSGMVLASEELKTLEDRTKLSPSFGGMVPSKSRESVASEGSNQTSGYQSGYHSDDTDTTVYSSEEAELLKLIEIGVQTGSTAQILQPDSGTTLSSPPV

Row | Structure (SMILES) | Ki [1] [nM] | Ki [2] [nM] | Ki [3] [nM] | Ki [4] [nM] | Ki [5] [nM] | Ki [6] [nM] | Ki [7] [nM]
1 | c1cn2c(NC3CCCCC3)c(-c3ccc4[nH]ncc4c3)nc2s1 | 5340 | 1290 | 622 | 642 | – | – | –
2 | c1cn2c(NC3CCCCC3)c(-c3ccc4[nH]ncc4c3)nc2cn1 | – | 1850 | – | – | – | – | –
3 | CCCCNc1c(-c2ccc3[nH]ncc3c2)nc2ncccn12 | > 8880 | 114 | 116 | 19 | > 3750 | – | –
4 | CN(C)CCn1cnc(-c2ccc(F)cc2)c1-c1ccc2[nH]ncc2c1 | > 8880 | > 8750 | > 6000 | > 5450 | > 3750 | 67 | > 1450
5 | Clc1ccc(Nc2c(-c3ccc4[nH]ncc4c3)nc3ncccn23)cc1 | > 8880 | > 8750 | 1560 | 121 | > 3750 | – | –
6 | CCNc1nc(-c2ccc3[nH]ncc3c2)cs1 | > 8880 | 1950 | 888 | 3930 | > 3750 | – | –
7 | Nc1nc(-c2ccc3[nH]ncc3c2)cs1 | > 8880 | 2900 | 909 | 4470 | > 3750 | – | –
8 | c1ccc(CCNc2nc(-c3ccc4[nH]ncc4c3)cs2)cc1 | > 8880 | > 8750 | 364 | > 5450 | > 3750 | – | –
9 | c1ccc(-c2c(-c3ccc4[nH]ncc4c3)nc3ncccn23)cc1 | > 8880 | 339 | 6 | 10 | > 3750 | – | –
10 | c1ccc(CNc2nc(-c3ccc4[nH]ncc4c3)c(-c3ccccc3)s2)cc1 | > 8880 | > 8750 | 822 | 3400 | > 3750 | – | –
11 | Fc1ccc(-c2ncn(C3CCN(Cc4ccccc4)C3)c2-c2ccc3[nH]ncc3c2)cc1 (centres undefined) | > 8880 | > 8750 | > 6000 | > 5450 | > 3750 | 8 | > 1450
12 | c1ccc(Nc2nc(-c3ccc4[nH]ncc4c3)c(-c3ccccc3)s2)cc1 | > 8880 | > 8750 | 1410 | > 5450 | > 3750 | – | –
13 | Fc1ccc(-c2ncn(CCCN3CCOCC3)c2-c2ccc3[nH]ncc3c2)cc1 | > 8880 | > 8750 | > 6000 | > 5450 | > 3750 | 27 | > 1450
14 | Cc1nc(-c2ccc3[nH]ncc3c2)cs1 | > 8880 | 4160 | 513 | 2860 | > 3750 | – | –
15 | c1ccn2c(NC3CCCCC3)c(-c3ccc4[nH]ncc4c3)nc2c1 | – | 2310 | 2480 | 2610 | – | – | –
